Source: patent publication US12397037B2, “Methods and compositions for immunomodulation” (CHILDREN'S MEDICAL CENTER CORPORATION, priority 2014, dated 2025)

How the values were obtained:
VEGF = VEGF protein in conditioned media by ELISA, U87MG cells; assay type: cell-based, human
Description: The VEGF-A (DVE00) ELISA kit was obtained from R&D Systems (Minneapolis, MN). […] Desferrioxamine (DFO) was purchased from Sigma-Aldrich, and the MEK inhibitor (U0126) was purchased from EMD-Millipore (Billerica, MA). pGL4.74 [hRluc/TK] vector (Promega Madison, WI) was used as an internal control in luciferase assay.

VEGF promoter = VEGF promoter luciferase assay in U87MG cells; assay type: cell-based, human; settings: DFO 250 μM, 18 hours
Description: FIGS. 31A-31B depict U87MG cells transiently co-transfected with a full-length human VEGF promoter luciferase plasmid and a pGL4.74 [hRluc/TK] plasmid as an internal control. Cells were treated with SEMA3F (640 ng/ml for 30 minutes) prior to the addition of DFO (250 μM) or the culture of cells in a hypoxia chamber (1% 02). After 18 hours, VEGF promoter luciferase activity was analyzed. FIG. 31C depicts a graph of U87MG cells transiently cotransfected with our VEGF promoter luciferase and pGL4.74 [hRluc/TK] plasmids and with either a pcDNA3.1 empty vector or our constitutively active Akt (2DAkt). The cells were treated with SEMA3F for 30 minutes prior to the addition of DFO. After 18 hours, VEGF promoter luciferase activity was analyzed. FIG. 31D depicts a graph of parental U87MG cells treated with SEMA3F, rapamycin (10 nM), Torin 1 (10 nM) alone or in combination as indicated for 30 minutes prior to the addition of DFO, and culture supernatants were collected after 18 hours; VEGF protein levels were analyzed by ELISA. In each panel data are representative of 3 independent experiments. Bar graphs represent the mean±SD of n=3 experiments performed in triplicate, *, p<0.01 vs. control.
SEMA3F inhibits hypoxia-induced production of VEGF via the mTOR pathway. The local expression and regulation of VEGF is key to many physiological and pathological processes (40, 41). These findings indicate that SEMA3F can target the transcriptional activation of VEGF via its ability to target mTOR kinase activity (36, 42). To test the effect of SEMA3F on the regulation of VEGF expression, U87MG cells were transfected with a full-length 2.6 kb VEGF promoter-luciferase construct and exposed to the hypoxia mimetic agent desferrioxamine (DFO) or hypoxia (1% 02). […] To test the relative effect of SEMA3F on mTORC1/C2, U87MG cells transiently co-transfected with the 2DAkt construct and the full length VEGF promoter reporter construct, and the cells cultured in the absence or presence of SEMA3F. […] Finally, the effect of SEMA3F on the secretion of VEGF into conditioned media (by ELISA) was determined in the absence or presence of DFO.
Transfection and Luciferase assay: U87MG cells were transiently transfected with plasmid constructs (pcDNA3.1, WT mTOR, 2DAkt, VEGF luciferase reporter plasmid or pGL4.74 [hRluc/TK]) as indicated using Lipofectamine 2000 reagent (Life Technologies) according to the manufacturer's instructions. After 18 hours, cells were treated as outlined in each experimental design. VEGF promoter activity was analyzed using a Dual-Luciferase Reporter Assay System (Promega), and luciferase activity was normalized by Renilla luciferase as an internal control.

[1] = system: glioblastoma cells and EC; settings: reference 12; cited from earlier work
U87MG cells = assay: Western blot of PI-3K/Akt-mTOR and MAPK signaling in U87MG cells; assay type: cell-based, human; settings: U87MG cells
Description: U87MG which express NRP-2 were used for this assay.
To determine the effect of SEMA3F on intracellular signaling responses, levels of phosphokinases in the NRP2-expressing human glioblastoma cell line U87MG were profiled.
Western blotting: Proteins within each sample were separated by SDS-PAGE and transferred to nitrocellulose membranes. The membranes were blocked with 4% skimmed milk in TBS-T (0.1% Tween 20 in tris-buffered saline [TBS]) for 30 minutes, followed by incubation with the primary antibody. After washing with TBS-T, membranes were incubated with the appropriate horseradish peroxidase-conjugated secondary antibody, and immunoreactivity was detected by using ECL detection reagents.

[2] = rapamycin alone 10 nM for 90 minutes, vs untreated

SMILES: CC(=O)N(O)CCCCCNC(=O)CCC(=O)N(O)CCCCCNC(=O)CCC(=O)N(O)CCCCCN [DFO, desferrioxamine, reference compound]
- increase of VEGF production (VEGF; DFO, compared to untreated cells): 160%
- induction of VEGF promoter activity (VEGF promoter): 16 fold

SMILES: Cc1ccc(NC(=O)c2ccc(CN3CCN(C)CC3)cc2)cc1Nc1nccc(-c2cccnc2)n1 [Gleevec, imatinib]
- SEMA3-mediated loss of stress fiber formation and motility [1]: abrogates SEMA3-mediated loss of stress fiber formation and motility

SMILES: CCC(=O)N1CCN(c2ccc(-n3c(=O)ccc4cnc5ccc(-c6cnc7ccccc7c6)cc5c43)cc2C(F)(F)F)CC1 [Torin 1]
- VEGF levels, combination of SEMA3F and Torin 1 (VEGF; DFO, compared to SEMA3F or Torin 1 alone): slightly (but significantly p<0.05) inhibited VEGF levels
- DFO-induced VEGF protein secretion (VEGF; SEMA3F, rapamycin 10 nM or Torin 1 10 nM, 30 minutes prior to DFO, supernatants after 18 hours): significantly reduced

SMILES: N#CC(=C(/N)Sc1ccccc1N)/C(C#N)=C(\N)Sc1ccccc1N [U0126, reference compound]
- effect of MEK inhibitor on SEMA3F regulation of pAkt (U87MG cells; U0126 10 μM 30 minutes prior to SEMA3F 640 ng/ml): did not modulate

SMILES: CO[C@H]1C[C@@H]2CC[C@@H](C)[C@@](O)(O2)C(=O)C(=O)N2CCCC[C@H]2C(=O)O[C@H]([C@H](C)C[C@@H]2CC[C@@H](O)[C@H](OC)C2)CC(=O)[C@H](C)/C=C(\C)[C@@H](O)[C@@H](OC)C(=O)[C@H](C)C[C@H](C)/C=C/C=C/C=C/1C [rapamycin, reference compound]
- induction in the level of pAkt (S473) (U87MG cells; [2]): 2.0 fold
- induction in the level of pAkt (T308) (U87MG cells; [2]): 1.9 fold
